The values that follow come from ChEMBL document CHEMBL5344445, “Profiling the Linear Peptides of Venom from the Brazilian Scorpion Tityus serrulatus: Structural and Functional Characterization” (J Nat Prod, 2024).

The nature of data set [1]: Induction of edema formation in Swiss mouse at 2 ug, I.PL measured after 60 mins relative to control. In kind it is toxicity. The note with it: in vivo, other, 1 h.
Data set [2] can be described thus: Induction of edema formation in Swiss mouse at 2 ug, I.PL measured after 300 mins relative to control. In kind it is toxicity. The note with it: in vivo, other, 5 h, dose 2 µg.
For the next data set, the system named is Staphylococcus aureus. The data set can be described thus: Antibacterial activity against Staphylococcus aureus. In kind it is functional, organism-based.
Data set [3] is described as follows: Induction of nociception in Swiss mouse at 2 ug, I.PL incubated for 60 mins by von frey test relative to control. The note with it: in vivo, other, 1 h. In kind it is toxicity.
The nature of data set [4]: Induction of nociception in Swiss mouse at 2 ug, I.PL incubated for 180 mins by von frey test relative to control. In kind it is toxicity. The note with it: in vivo, other, 3 h.
Data set [5] is described as follows: Effect on locomotory activity in Swiss mouse assessed as decrease in frequency at 2 ug, I.PL incubated for 3 to 15 mins by open field test relative to control. In kind it is toxicity. On the set-up: scale not given: the % may be the effect or the level left. The note with it: in vivo, other, time 3-15 min.
The nature of data set [6]: Effect on rearing activity in Swiss mouse assessed as increase in frequency at 2 ug, I.PL incubated for 3 to 15 mins by open field test relative to control. In kind it is toxicity. The note with it: in vivo, other, time 3-15 min.
For another data set, the system named is Klebsiella aerogenes. As to the kind of experiment: Antibacterial activity against Enterobacter aerogenes. In kind it is functional, organism-based.
The test system of a further data set is Streptococcus pneumoniae. The data set can be described thus: Antibacterial activity against Streptococcus pneumoniae. In kind it is functional, organism-based.
A short description of data set [7]: Induction of Wistar rat mast cell degranulation assessed as beta-D-glusosaminidase release at 5 to 500 uM incubated for 15 mins relative to control. In kind it is toxicity, cell-based. The note with it: 0.25 h, dose 5-500 µM.
The nature of data set [8]: Induction of nociception in Swiss mouse at 2 ug, I.PL incubated for 300 mins by von frey test relative to control. The note with it: in vivo, other, 5 h. In kind it is toxicity.
In a further data set the test system is Erythrocyte. As to the kind of experiment: Hemolytic activity in Wistar rat RBC at 5 to 500 uM incubated for 120 mins. In kind it is toxicity, cell-based. The note with it: erythrocyte, 2 h, 500 µM, dose 5-500 µM.
The nature of data set [9]: Induction of Wistar rat mast cell lysis assessed as LDH release at 5 to 500 uM incubated for 5 mins in presence of NADH relative to control. In kind it is toxicity, cell-based. The note with it: dose 5-500 µM.
The test system of a further data set is Escherichia coli. As to the kind of experiment: Antibacterial activity against Escherichia coli. In kind it is functional, organism-based.
A short description of data set [10]: Induction of edema formation in Swiss mouse at 2 ug, I.PL measured after 180 mins relative to control. In kind it is toxicity. The note with it: in vivo, other, 3 h, dose 2 µg.

Active and inactive are the calls of the source. The rule behind the calls is not given here. Peptide text beside a SMILES is read from it.

`CC(C)C[C@H](NC(=O)CNC(=O)CNC(=O)[C@H](Cc1c[nH]cn1)NC(=O)[C@H](CC(=O)O)NC(=O)CNC(=O)[C@H](CO)NC(=O)[C@H](CC(C)C)NC(=O)[C@H](CC(C)C)NC(=O)[C@H](C)NC(=O)[C@H](CC(=O)O)NC(=O)[C@H](CS)NC(=O)CN)C(=O)N[C@@H](CC(C)C)C(=O)N[C@@H](CO)C(=O)N[C@@H](C)C(=O)N[C@@H](CC(N)=O)C(=O)NCC(=O)N[C@@H](CS)C(=O)O` (H-GCDALLSGDHGGLLSANGC-OH): the Activity entry in data set [1] (dose 2 µg), in data set [2], in data set [3] (dose 2 µg), in [4] (dose 2 µg), in data set [5] (dose 2 µg) and in data set [6] (dose 2 µg) was “Non-Toxic” each time. Besides, the Activity entry (in data set [7]; in data set [8] (dose 2 µg); in the data set on Erythrocyte; in [9]; in data set [10]) was “Non-Toxic” in each case. Besides, the result in the data set on Staphylococcus aureus, in the data set on Klebsiella aerogenes, with Streptococcus pneumoniae and in the data set with Escherichia coli was inactive.

For the compound H-AEIDFSGIPEDIIKQI-OH, the Activity entry in data set [1] (dose 2 µg) was “Non-Toxic”; in [2] it was “Non-Toxic”; in data set [3] (at 2 µg), 71%; in [4] (at 2 µg) it was 71%; in data set [5] (at 2 µg), “<= 40%”; in data set [6] (at 2 µg) it was “<= 40%”. In addition, the Activity result is on record as “Non-Toxic” in data set [7]; 71% in [8] (at 2 µg); “Non-Toxic” in the data set on Erythrocyte; “Non-Toxic” in data set [9]; “Non-Toxic” in [10]. The result with Staphylococcus aureus, in the data set on Klebsiella aerogenes, in the data set on Streptococcus pneumoniae and in the data set with Escherichia coli was inactive.

H-GKGKEILGK-OH: the Activity entry in [1] (dose 2 µg), in data set [2], in data set [3] (dose 2 µg), in data set [4] (dose 2 µg), in [5] (dose 2 µg) and in data set [6] (dose 2 µg) was “Non-Toxic” throughout. In addition, the Activity result (in [7]; in data set [8] (dose 2 µg); in the data set on Erythrocyte; in data set [9]; in data set [10]) was “Non-Toxic” in each case. In addition, the outcome with Staphylococcus aureus, with Klebsiella aerogenes, in the data set with Streptococcus pneumoniae and in the data set on Escherichia coli was inactive.

Take H-GLREKHVQ-OH: the Activity entry in data set [1] (dose 2 µg) is “Non-Toxic”; in data set [2] it was “Non-Toxic”; in [3] (dose 2 µg), “Non-Toxic”; in data set [4] (dose 2 µg) it was “Non-Toxic”; in data set [5] (at 2 µg), “<= 40%”; in data set [6] (dose 2 µg), “Non-Toxic”. For the same compound, the Activity result (in [7]; in data set [8] (dose 2 µg); in the data set with Erythrocyte; in data set [9]; in [10]) was “Non-Toxic” in each case. Moreover, the outcome in the data set on Staphylococcus aureus, in the data set on Klebsiella aerogenes, in the data set on Streptococcus pneumoniae and in the data set on Escherichia coli was inactive.

As to H-ILTGKLKCK-OH, the Activity is listed as 71% in [1] (at 2 µg); “Non-Toxic” in [2]; 41% in data set [3] (at 2 µg); 41% in data set [4] (at 2 µg); “Non-Toxic” in [5] (dose 2 µg); “Non-Toxic” in data set [6] (dose 2 µg). Also, the Activity entry in [7] is recorded as “Non-Toxic”; in data set [8] (at 2 µg), 41%; with Erythrocyte it was “Non-Toxic”; in data set [9], “Non-Toxic”; in data set [10], “Non-Toxic”. Besides, the result in the data set with Staphylococcus aureus, in the data set on Klebsiella aerogenes, in the data set on Streptococcus pneumoniae and with Escherichia coli was inactive.

For the compound H-KETNAKPPA-OH, the Activity result in [1] (dose 2 µg) was “Non-Toxic”; in [2], “Non-Toxic”; in data set [3] (at 2 µg), 41%; in data set [4] (at 2 µg), 71%; in data set [5] (at 2 µg), “<= 40%”; in data set [6] (at 2 µg) it was “<= 40%”. In addition, the Activity result in data set [7] is “Non-Toxic”; in [8] (at 2 µg) it was 71%; with Erythrocyte it was “Non-Toxic”; in [9], “Non-Toxic”; in data set [10], “Non-Toxic”. Besides, the result in the data set with Staphylococcus aureus, with Klebsiella aerogenes, in the data set on Streptococcus pneumoniae and in the data set with Escherichia coli was inactive.

With H-KHFGKDSNFPF-NH2, the Activity result in data set [1] (dose 2 µg) was “Non-Toxic”; in [2], “Non-Toxic”; in data set [3] (dose 2 µg), “Non-Toxic”; in data set [4] (dose 2 µg), “Non-Toxic”; in [5] (at 2 µg), “<= 40%”; in data set [6] (dose 2 µg), “Non-Toxic”. Further, the Activity entry (in data set [7]; in data set [8] (dose 2 µg); with Erythrocyte; in data set [9]; in [10]) was “Non-Toxic” in each case. For the same compound, the outcome with Staphylococcus aureus, in the data set on Klebsiella aerogenes, with Streptococcus pneumoniae and in the data set on Escherichia coli was inactive.

On to H-KPVEPVG-OH, for which the Activity entry in data set [1] (dose 2 µg) is on record as “Non-Toxic”; in data set [2] it was “Non-Toxic”; in data set [3] (at 2 µg), “<= 40%”; in data set [4] (at 2 µg), “<= 40%”; in data set [5] (dose 2 µg), “Non-Toxic”; in data set [6] (at 2 µg), 41%. The Activity entry in [7] is given as “Non-Toxic”; in data set [8] (at 2 µg), “<= 40%”; with Erythrocyte, “Non-Toxic”; in data set [9], “Non-Toxic”; in [10], “Non-Toxic”. For the same compound, the outcome with Staphylococcus aureus, with Klebsiella aerogenes, with Streptococcus pneumoniae and in the data set on Escherichia coli was inactive.

With H-SESNTCG-OH, the Activity result in data set [1] (dose 2 µg) is given as “Non-Toxic”; in [2] it was “Non-Toxic”; in data set [3] (at 2 µg), “<= 40%”; in data set [4] (at 2 µg), “<= 40%”; in data set [5] (dose 2 µg) it was “Non-Toxic”; in data set [6] (at 2 µg), “<= 40%”. Also, the Activity entry in [7] is listed as “Non-Toxic”; in data set [8] (at 2 µg), “<= 40%”; with Erythrocyte, “Non-Toxic”; in data set [9], “Non-Toxic”; in [10], “Non-Toxic”. The outcome in the data set on Staphylococcus aureus, in the data set on Klebsiella aerogenes, in the data set on Streptococcus pneumoniae and in the data set on Escherichia coli was inactive.
